Measured values taken from patent US20150065440A1 (Progen Pharmaceuticals Limited, priority 2007, published 2015).
Where two headings read alike, the source gives them in different places.

Legend:
[1] = test system: HUVECs; test: Matrigel microtubule formation assay; type: cell-based, human; conditions: for Microtubule Formation % inhibition at 10 μM: relative to controls
Experimental: Medium for the proliferation studies was prepared using EGM with 2% FBS and gentamicin only. In a later study, complete EGM was used for the VEGF groups in an attempt to enhance the proliferative index of VEGF-stimulated groups. For the tube formation assay, complete medium was used with only heparin omitted. Compounds under investigation were weighed out from powder stocks and diluted in PBS to 10 mM stock solutions and stored at −80° C. For experiments, compounds were subsequently diluted in EBM-2 medium (supplemented with 2% FBS and gentamicin) to various working concentration as required.
The tube formation assay was performed essentially as described by Malinda et al., with modifications.^41 HUVECs in the fourth or fifth passage at 70-80% confluence were harvested and resuspended in Lonza endothelial growth medium (EGM2) containing all supplements as directed by manufacturer, except heparin, at a cell density of 4×10^5 cells per mL. For each set of triplicate wells, 200 μL of cells (4×10^5/mL) were treated with an equal volume of compound to obtain final concentrations of 10, 50 or 100 μM (thus ensuring 1×300 μL are available for each condition). A 100 μL aliquot of cells was then plated onto 96-well plates pre-coated with growth factor reduced Matrigel™ (50 μL for 30 min followed by a further 30 μL for 1 h) and incubated for 18-22 h. Tube formation was examined by phase-contrast microscopy and images were collected using an Olympus C5050 digital camera. Tube formation inhibition was quantitated manually from images by recording the total number of nodes connecting 3 or more tubules. Untreated HUVECs were used as a control for normal cell growth and tube formation in Matrigel.

[2] = test system: HUVEC proliferation induced by FGF-2; test: Growth factor induced endothelial cell proliferation assay, FGF-2; type: cell-based, human; conditions: 72 h, read-out: FGF-2 (IC50) inhibition of HUVEC proliferation
How it was run: (§1)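 HUVECs at 1-3×10^3 per well in EGM with 2% FBS and gentamicin (complete EGM for VEGF groups in a later study) were treated with growth factor plus compound. After 70 h, proliferation was read by absorbance at 490 nm following 2 h with CellTitre 96 Aqueous One reagent.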

[3] = test system: HUVEC proliferation induced by VEGF; test: Growth factor induced endothelial cell proliferation assay, VEGF; type: cell-based, human; conditions: 72 h, read-out: VEGF (IC50) inhibition of HUVEC proliferation
How it was run: as §1

[4] = test system: HUVEC proliferation induced by FGF-1; test: Growth factor induced endothelial cell proliferation assay, FGF-1; type: cell-based, human; conditions: 72 h, read-out: FGF-1 (IC50) inhibition of HUVEC proliferation
How it was run: as §1

[5] = test system: HSV-1; test: Viral plaque number-reduction assay, HSV-1; conditions: plaques in GMK AH1 cells (Table 9, footnote b)
Experimental: African green monkey kidney (GMK AH1) cells^46 were cultured in Eagle's minimum essential medium (EMEM) supplemented with 2% calf serum, 0.05% Primaton RL substance (Kraft Inc., Norwich, USA) and antibiotics. Human epidermoid carcinoma (HEp-2) cells were cultured in Dulbecco's modified EMEM (DMEM) supplemented with 10% fetal calf serum and antibiotics. […] The RSV strain A-2^50 was used. The RSV stock was prepared as described by Hallak et al.^51 and stored at −70° C. in the presence of 40% sucrose^52.
The viral infectivity (the plaque number-reduction) assay and the plaque size-reduction assay were carried out as described previously^17. […] Subsequently, the cells were washed with 2 mL of EMEM and overlaid with 1% methylcellulose solution in EMEM. The plaques were visualized by staining with crystal violet solution after 2 (HSV-2) or 3 (HSV-1) days of incubation at 37° C. […] When the compounds were screened for anti-HSV or anti-RSV activity, mixtures of 200 PFU of the virus and the test compound (100 μg/mL) in serum-free EMEM were incubated for 10 min at room temperature before addition to cells and during the entire period of viral infection of cells and the development of viral plaques. In the plaque size-reduction assay, the compounds were added to cells (in methylcellulose overlay medium) after 2 h period of virus infection of cells in the absence of the inhibitor. After 2-3 days of incubation at 37° C., the viral plaques were visualized by staining the cells with 1% solution of crystal violet. For each compound tested, the images of twenty neighboring plaques were captured using a Leica DC300 digital camera attached to a Leitz-Wetzlar Diavert microscope. The area of each plaque was determined using IM500 image software (Leica). Similar protocols were used for RSV, except that the assays were performed in HEp-2 cells and DMEM supplemented with 2% heat-inactivated fetal calf serum was used instead of EMEM.

| HSV-1 KOS321 strain IC50 [5] [µg/mL] | Structure (SMILES) | inhibition at 10 µM ([1]; Homo sapiens, HUVEC, read-out: Microtubule Formation % inhibition at 10 μM) [%] | IC50 ([2]; Homo sapiens, HUVEC) [nM] | IC50 ([3]; Homo sapiens, HUVEC) [nM] | IC50 ([4]; Homo sapiens, HUVEC) [nM] | Microtubule Formation % inhibition at 10 μM [1] [%] | IC50 [2] [nM] | IC50 [3] [nM] | IC50 [4] [nM] |
| --- | --- | --- | --- | --- | --- | --- | --- | --- | --- |
| – | CC(C)CCC[C@@H](C)[C@H]1CC[C@H]2[C@@H]3CC[C@H]4C[C@@H](O[C@H]5O[C@H](COS(=O)(=O)O)[C@@H](OS(=O)(=O)O)[C@H](OS(=O)(=O)O)[C@@H]5O[C@H]5O[C@H](COS(=O)(=O)O)[C@@H](OS(=O)(=O)O)[C@H](OS(=O)(=O)O)[C@@H]5OS(=O)(=O)O)CC[C@]4(C)[C@H]3CC[C@]12C [Compound 33, 3β-Cholestanyl 2,3,4,6-tetra-O-sodium sulfonato-α-D-mannopyranosyl-(1→2)-3,4,6-tri-O-sodium sulfonato-α-D-mannopyranoside] | 14 | 2220 | 1850 | > 10000 | – | – | – | – |
| – | CC(C)CCC[C@@H](C)[C@H]1CC[C@H]2[C@@H]3CCC4CC(O[C@H]5O[C@H](COS(=O)(=O)[O-])[C@@H](OS(=O)(=O)[O-])[C@H](O[C@H]6O[C@H](COS(=O)(=O)[O-])[C@@H](OS(=O)(=O)[O-])[C@H](O[C@H]7O[C@H](COS(=O)(=O)[O-])[C@@H](OS(=O)(=O)[O-])[C@H](OS(=O)(=O)[O-])[C@@H]7OS(=O)(=O)[O-])[C@@H]6OS(=O)(=O)[O-])[C@@H]5OS(=O)(=O)[O-])CC[C@]4(C)[C@H]3CC[C@]12C.[Na+].[Na+].[Na+].[Na+].[Na+].[Na+].[Na+].[Na+].[Na+].[Na+] (stereo partly drawn) [Compound 56, 3′-Cholestanyl 2,3,4,6-tetra-O-sodium sulfonato-α-D-mannopyranosyl-(1→3)-2,4,6-tri-O-sodium sulfonato-α-D-mannopyranosyl-(1→3)-3,4,6-tri-O-sodium sulfonato-α-D-mannopyranoside] | – | – | – | – | 67 | 1800 | 1720 | 2520 |
| – | CC(C)CCC[C@@H](C)[C@H]1CC[C@H]2[C@@H]3CCC4C[C@@H](OCc5cn(CCCO[C@H]6O[C@H](COS(=O)(=O)[O-])[C@@H](OS(=O)(=O)[O-])[C@H](O[C@H]7O[C@H](COS(=O)(=O)[O-])[C@@H](OS(=O)(=O)[O-])[C@H](O[C@H]8O[C@H](COS(=O)(=O)[O-])[C@@H](OS(=O)(=O)[O-])[C@H](OS(=O)(=O)[O-])[C@@H]8OS(=O)(=O)[O-])[C@@H]7OS(=O)(=O)[O-])[C@@H]6OS(=O)(=O)[O-])nn5)CC[C@]4(C)[C@H]3CC[C@]12C.[Na+].[Na+].[Na+].[Na+].[Na+].[Na+].[Na+].[Na+].[Na+].[Na+] (stereo partly drawn) [Compound 60, 3-{4-(Cholestan-3β-yl-oxymethyl)-[1,2,3]triazol-1-yl}propyl 2,3,4,6-tetra-O-sodium sulfonato-α-D-mannopyranosyl-(1→3)-2,4,6-tri-O-sodium sulfonato-α-D-mannopyranosyl-(1→3)-3,4,6-tri-O-sodium sulfonato-α-D-mannopyranoside] | – | – | – | – | 49 | 1220 | 1440 | 2610 |
| 0.25 | CC(C)CCC[C@@H](C)[C@H]1CC[C@H]2[C@@H]3CCC4CC(OCc5cn([C@@H]6O[C@H](COS(=O)(=O)[O-])[C@@H](O[C@H]7O[C@H](COS(=O)(=O)[O-])[C@@H](O[C@H]8O[C@H](COS(=O)(=O)[O-])[C@@H](OS(=O)(=O)[O-])[C@H](OS(=O)(=O)[O-])[C@H]8OS(=O)(=O)[O-])[C@H](OS(=O)(=O)[O-])[C@H]7OS(=O)(=O)[O-])[C@H](OS(=O)(=O)[O-])[C@H]6OS(=O)(=O)[O-])nn5)CC[C@]4(C)[C@H]3CC[C@]12C.[Na+].[Na+].[Na+].[Na+].[Na+].[Na+].[Na+].[Na+].[Na+].[Na+] (stereo partly drawn) [Compound 70, 4-(Cholestan-3-yl-oxymethyl)[1,2,3]triazol-1-yl 2,3,4,6-tetra-O-sodium sulfonato-α-D-glucopyranosyl-(1→4)-2,3,6-tri-O-sodium sulfonato-α-D-glucopyranosyl-(1→4)-1-deoxy-2,3,6-tri-O-sodium sulfonato-β-D-glucopyranoside] | – | – | – | – | 52 | 640 | 2200 | 2300 |
| – | CCCCCCCCCCCCCCCCCC(=O)NCCCO[C@@H]1O[C@H](COS(=O)(=O)[O-])[C@@H](O[C@H]2O[C@H](COS(=O)(=O)[O-])[C@@H](O[C@H]3O[C@H](COS(=O)(=O)[O-])[C@@H](O[C@H]4O[C@H](COS(=O)(=O)[O-])[C@@H](OS(=O)(=O)[O-])[C@H](OS(=O)(=O)[O-])[C@H]4OS(=O)(=O)[O-])[C@H](OS(=O)(=O)[O-])[C@H]3OS(=O)(=O)[O-])[C@H](OS(=O)(=O)[O-])[C@H]2OS(=O)(=O)[O-])[C@H](OS(=O)(=O)[O-])[C@H]1OS(=O)(=O)[O-].[Na+].[Na+].[Na+].[Na+].[Na+].[Na+].[Na+].[Na+].[Na+].[Na+].[Na+].[Na+].[Na+] [Compound 128, 3-Stearamidopropyl 2,3,4,6-tetra-O-sulfo-α-D-glucopyranosyl-(1→4)-2,3,6-tri-O-sulfo-α-D-glucopyranosyl-(1→4)-2,3,6-tri-O-sulfo-α-D-glucopyranosyl-(1→4)-2,3,6-tri-O-sulfo-β-D-glucopyranoside, tridecasodium salt] | – | 770 | – | – | – | – | – | – |
